What was measured:
AMPKa [pT172] = assay: AMPKa activation [pT172] in MCF7 cell; assay type: cell-based
HCT116 cells = assay: Inhibitory effect against cancer cell proliferation (MTT); assay type: cell-based, human; details: Homo sapiens, HCT-116; HCT116, MTT, 48 hours; read-out: IC50 (uM) @ HCT116
Description: The formazane crystals thus formed were dissolved using dimethyl sulfoxide (DMSO) and absorbance of the solution was measured at 560 nm. After culturing for 48 hours, […] synthesized in Examples was indicated as cell viability (%) according to each treated concentration.

Row | Compound | AMPKa activation [pT172] (Unit/ml) @ MCF7 cell (AMPKa [pT172]; 5 uM) [Unit/ml] | AMPKa activation [pT172] (Unit/ml) @ MCF7 cell (AMPKa [pT172]; 10 uM) [Unit/ml] | AMPKa activation [pT172] (Unit/ml) @ MCF7 cell (AMPKa [pT172]; 50 uM) | IC50 (HCT116 cells) [µM]
1 | CC(C)C1CC(=O)N=C(NC(=N)N2CCCCC2)N1.Cl (centres unmarked) [Example 159, N-(6-isopropyl-4-oxo-1,4,5,6-tetrahydropyrimidin-2-yl)piperidin-1-carboximidamide Hydrochloride] | 2.17 | 2.35 | 3.02 Unit/ml | –
2 | CC1CCN(C(=N)NC(=N)Nc2ccc(Cl)cc2)CC1.Cl [Example 55] | 3.5 | 5.3 | cell death | –
3 | CN1CCN(C(=N)NC(=N)NCc2cccc(Cl)c2)CC1.Cl [Example 35] | 5.0 | 4.2 | 3.4 Unit/ml | –
4 | Cl.N=C(NCCc1ccccc1Cl)NC(=N)N1CCCCC1 [Example 14] | – | – | 11.0 Unit/ml | –
5 | Cl.N=C(NC1=NC(=O)CC(C2CC2)N1)N1CCCCC1 (centres unmarked) [Example 157, N-(6-cyclopropyl-4-oxo-1,4,5,6-tetrahydropyrimidin-2-yl)piperidin-1-carboximidamide Hydrochloride] | 4.17 | 2.68 | 2.00 Unit/ml | –
6 | CCOC1CCN(C(=N)NC(=N)Nc2cccc(OC(F)(F)F)c2)CC1.Cl [Example 25, N1-(4-ethoxy)piperidin-N5-3-trifluoromethoxy)phenyl Biguanide Hydrochloride] | – | – | – | 8.4
7 | Cl.N=C(N)NC(=N)Nc1ccc(OC(F)(F)F)cc1 [Example 140, Hydrochloride] | – | – | – | 100
8 | Cl.N=C(NCc1ccc(OC(F)(F)F)cc1)NC(=N)Nc1cccnc1 [Example 42] | 4.3 | 8.7 | 19.1 Unit/ml | –
9 | Cl.N=C(NC(=N)N1CCCCC1)N1CCCCC1 [Example 2, N1-piperidin-N5-piperidine Biguanide Hydrochloride] | – | – | 4.9 Unit/ml | –
10 | CC1CCNC(NC(=N)N2CCCCC2)=N1.Cl (centres unmarked) [Example 162, N-(4-methyl-1,4,5,6-tetrahydropyrimidin-2-yl)piperidin-1-carboximidamide Hydrochloride] | 4.41 | 4.04 | 7.34 Unit/ml | –
11 | CN(C)C(=N)NC(=N)NCc1ccc2c(c1)OCO2.Cl [Example 4, N1,N1-dimethyl-N5-(benzo[d][1,3]dioxol-5-yl)methyl Biguanide Hydrochloride] | – | – | 3.8 Unit/ml | –
12 | CN(C)C(=N)NC(=N)N1CCCCC1.Cl [Example 1, N1,N1-dimethyl-N5-piperidine Biguanide Hydrochloride] | – | – | 4.6 Unit/ml | –
13 | CC1CN=C(NC(=N)N2CCCCC2)NC1.Cl (centres unmarked) [Example 158, N-(5-methyl-1,4,5,6-tetrahydropyrimidin-2-yl)piperidin-1-carboximidamide Hydrochloride] | 3.11 | 2.49 | 3.75 Unit/ml | –
14 | Cl.N=C(NCc1ccc2c(c1)OCO2)NC(=N)N1CCCCC1 [Example 9, N1-piperidin-N5-(benzo[d][1,3]dioxol-5-yl)methyl Biguanide Hydrochloride] | – | – | 16.3 Unit/ml | –
15 | CCCC1CC(=O)N=C(NC(=N)N2CCCCC2)N1.Cl (centres unmarked) [Example 163, N-(6-propyl-4-oxo-1,4,5,6-tetrahydropyrimidin-2-yl)piperidin-1-carboximidamide Hydrochloride] | 4.07 | 3.76 | 4.48 Unit/ml | –
16 | CCC1CCNC(NC(=N)N2CCCCC2)=N1.Cl (centres unmarked) [Example 165, N-(4-ethyl-1,4,5,6-tetrahydropyrimidin-2-)piperidin-1-carboximidamide Hydrochloride] | 3.80 | 4.36 | 9.16 Unit/ml | –
17 | CN1CCN(C(=N)NC(=N)Nc2ccc(Cl)cc2)CC1.Cl [Example 27] | 9.8 | 8.7 | 14.3 Unit/ml | –
18 | CC1CNC(NC(=N)N)=NC1=O.Cl (centres unmarked) [Example 160, 1-(5-methyl-4-oxo-1,4,6-tetrahydropyrimidin-3-yl)guanidine Hydrochloride] | 2.51 | 2.65 | 2.84 Unit/ml | –
19 | Cl.N=C(NCCc1ccc(Cl)cc1)NC(=N)N1CCCCC1 [Example 13] | – | – | 7.0 Unit/ml | –
20 | CC(C)CC1CC(=O)N=C(NC(=N)N2CCCCC2)N1.Cl (centres unmarked) [Example 161, N-(6-isobutyl-4-oxo-1,4,5,6-tetrahydropyrimidin-2-yl)piperidin-1-carboximidamide Hydrochloride] | 3.03 | 2.73 | 4.06 Unit/ml | –
